pEC50: −log10 of the molar value. Where a name gives a salt, the structure may show the parent alone.

For this assay, the target named is T1, Calcium sensing receptor (hCaSR) (Homo sapiens, UniProt P41180).
T1 construct: expressed in transfected cells; host or cells: HEK293 (stably transfected)
T1 sequence (P41180 20-1078): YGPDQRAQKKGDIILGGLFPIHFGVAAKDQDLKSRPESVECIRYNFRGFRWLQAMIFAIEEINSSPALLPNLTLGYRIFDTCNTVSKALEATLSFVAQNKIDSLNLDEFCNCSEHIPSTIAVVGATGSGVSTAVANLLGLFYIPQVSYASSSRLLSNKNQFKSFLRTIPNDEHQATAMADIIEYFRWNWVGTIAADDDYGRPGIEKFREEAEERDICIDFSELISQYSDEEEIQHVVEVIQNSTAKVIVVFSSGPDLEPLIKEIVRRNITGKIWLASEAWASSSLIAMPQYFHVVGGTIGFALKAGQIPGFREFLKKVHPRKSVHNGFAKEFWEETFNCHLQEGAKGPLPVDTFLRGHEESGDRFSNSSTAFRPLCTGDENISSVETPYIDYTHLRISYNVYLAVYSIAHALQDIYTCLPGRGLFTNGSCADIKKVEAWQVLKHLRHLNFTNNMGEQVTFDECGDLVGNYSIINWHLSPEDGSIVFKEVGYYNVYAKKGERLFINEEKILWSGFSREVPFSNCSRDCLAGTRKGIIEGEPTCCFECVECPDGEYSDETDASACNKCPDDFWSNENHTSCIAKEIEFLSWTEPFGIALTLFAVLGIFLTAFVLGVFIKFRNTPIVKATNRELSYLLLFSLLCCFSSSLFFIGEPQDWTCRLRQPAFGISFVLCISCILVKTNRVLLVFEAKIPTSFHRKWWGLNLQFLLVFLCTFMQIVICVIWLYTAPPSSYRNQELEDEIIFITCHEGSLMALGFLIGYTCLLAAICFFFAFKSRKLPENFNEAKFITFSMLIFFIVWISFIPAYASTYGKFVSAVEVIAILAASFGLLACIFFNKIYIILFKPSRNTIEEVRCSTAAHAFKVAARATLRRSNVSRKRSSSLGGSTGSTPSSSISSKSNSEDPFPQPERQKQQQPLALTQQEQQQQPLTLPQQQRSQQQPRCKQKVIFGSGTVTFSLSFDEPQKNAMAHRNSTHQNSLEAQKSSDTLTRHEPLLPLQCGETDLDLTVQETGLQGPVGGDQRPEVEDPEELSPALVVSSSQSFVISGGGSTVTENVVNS
The experiment in a line: In-vitro assay of calcimimetics through modulation of calcium sensing receptor (intracellular calcium increase, FLIPR). Format: cell-based. As to conditions: stably transfected HEK293 cells expressing hCaSR; Fluo4NW dye; 0.3 mM CaCl2; 8-point assay; read-out: EC50 in range. The procedure: In-Vitro Assay Method of Calcimimetics Through Modulation of Calcium Sensing Receptor (CaSR): The ability of the compounds to modulate Calcium sensing receptor is determined by measuring an increase in intracellular calcium [Ca^2+]i. Stably transfected HEK293 cells expressing hCaSR_pTriEx-3 hygro vector are developed. Cells are grown overnight on a 96-well plate to 80% confluency in Ham's F12 containing 20% FBS at 37° C., 5% CO2. Subsequently, cells are washed extensively with 20 mM HEPES buffer containing 126 mM […], 1 mM MgCl2 and 4 mM KCl to remove serum components that might interfere with the assay. Cells are loaded with calcium sensing Fluo4NW dye in HEPES base buffer containing 0.1% BSA and 1 mg/ml glucose for 30 minutes to measure changes in intracellular calcium. The activities of the compounds are measured in FLIPR using 0.3 mM CaCl2 in 20 mM HEPES base buffer. The effectiveness of the compound to modulate receptor activity is determined by calculating the EC50 responses for that compound in an 8-point assay and plotted using GraphPad Prism 5.
On the technique in general: Calcium flux is commonly read through the fluorescence of an indicator in the cells.
Regarding `COc1cccc([C@@H](C)NCc2cc(-c3cccc(C(C)(C)C(=O)O)c3)c3ccccc3c2)c1` [Example 112, (R)-2-(3-(3-(((1-(3-Methoxyphenyl)ethyl)amino)methyl)naphthalen-1-yl)phenyl)-2-methylpropanoic acid hydrochloride], the pEC50 is 6.40 to 7.30.

For `CC(N[C@H](C)c1cccc(Cl)c1)c1cc(-c2ccc(C(F)(F)F)cc2)c2ccccc2c1` (stereo partly drawn) [Example 10, (1R)-1-(3-Chlorophenyl)-N-(1-(4-(4-(trifluoromethyl)phenyl)naphthalen-2-yl)ethyl)ethanamine hydrochloride], the pEC50 was above 7.70. For the compound `COc1cccc([C@@H](C)NCc2cc(-c3cccc(C(=O)O)c3C)c3ccccc3c2)c1` [Example 101, (R)-3-(3-(((1-(3-Methoxyphenyl)ethyl)amino)methyl)naphthalen-1-yl)-2-methylbenzoic acid hydrochloride], the pEC50 is 6.40 to 7.30. Next, `COc1cccc([C@@H](C)NC(C)c2cc(-c3ccc(C)c(CCC(=O)O)c3)c3ccccc3c2)c1` (stereo partly drawn) [Example 137, 3-(5-(3-(1-(((R)-1-(3-Methoxyphenyl)ethyl)amino)ethyl)naphthalen-1-yl)-2-methylphenyl) propanoic acid hydrochloride]: above 7.70. Next, `Cc1ccc(-c2cc(CN[C@H](C)c3cccc(Cl)c3)cc3ccccc23)cc1C(=O)O` [Example 94, (R)-5-(3-(((1-(3-Chlorophenyl)ethyl)amino)methyl)naphthalen-1-yl)-2-methylbenzoic acid hydrochloride]: 6.40 to 7.30. For `CCC(N[C@H](C)c1cccc(OC)c1)c1cc(-c2ccc(C(F)(F)F)cc2)c2ccccc2c1` (single isomer, unassigned) [Example 18a, hydrochloride], the pEC50 was above 7.70.

Consider `COc1cc([C@@H](C)NC(C)c2cc(-c3ccc(C(F)(F)F)cc3)c3ccccc3c2)ccc1F` (mixture of isomers) [Example 11, (1R)-1-(4-Fluoro-3-methoxyphenyl)-N-(1-(4-(4-(trifluoromethyl)phenyl)naphthalen-2-yl)ethyl)ethanamine hydrochloride], for which the pEC50 is above 7.70. With `COc1cc([C@@H](C)NCc2cc(-c3cccc(C(F)(F)F)c3)c3ccccc3c2)ccc1F` [Example 4, (R)-1-(4-Fluoro-3-methoxyphenyl)-N-((4-(3-(trifluoromethyl)phenyl)naphthalen-2-yl)methyl)ethanamine hydrochloride], the pEC50 was 7.30 to 7.70. Next, `COc1cccc([C@@H](C)NC(C)c2cc(-c3cccc(C(C)(C)C(=O)O)c3)c3ccccc3c2)c1` (stereo partly drawn) [Example 139, 2-(3-(3-(1-(((R)-1-(3-Methoxyphenyl)ethyl)amino)ethyl)naphthalen-1-yl)phenyl)-2-methylpropanoic acid hydrochloride]: 6.40 to 7.30. Next, `C[C@@H](NCc1cc(-c2cccc(C(F)(F)F)c2)c2ccccc2c1)c1cccc2ccccc12` [Example 3, (R)-1-(Naphthalen-1-yl)-N-((4-(3-(trifluoromethyl)phenyl)naphthalen-2-yl)methyl)ethanamine hydrochloride]: above 7.70. For `CC(N[C@H](C)c1cccc(Cl)c1)c1cc(-c2cccc(C(F)(F)F)c2)c2ccccc2c1` (stereo partly drawn) [Example 14, (1R)-1-(3-Chlorophenyl)-N-(1-(4-(3-(trifluoromethyl)phenyl)naphthalen-2-yl)ethyl)ethanamine hydrochloride], the negative-log EC50 (pEC50) is above 7.70. The value for `COc1cccc([C@@H](C)NCc2cc(-c3ccc(Cl)c(C(=O)O)c3)c3ccccc3c2)c1` [Example 99, (R)-2-Chloro-5-(3-(((1-(3-methoxyphenyl)ethyl)amino)methyl)naphthalen-1-yl)benzoic acid hydrochloride] was 7.30 to 7.70. The value for `CCOc1cccc([C@@H](C)NC(C)c2cc(-c3ccc(F)c(CCC(=O)O)c3)c3ccccc3c2)c1` (stereo partly drawn) [Example 142, 3-(5-(3-(1-(((R)-1-(3-Ethoxyphenyl)ethyl)amino)ethyl)naphthalen-1-yl)-2-fluorophenyl) propanoic acid hydrochloride] was above 7.70; that for `CC(N[C@H](C)c1cccc(F)c1)c1cc(-c2ccc(C(F)(F)F)cc2)c2ccccc2c1` (stereo partly drawn) [Example 13, (1R)-1-(3-Fluorophenyl)-N-(1-(4-(4-(trifluoromethyl)phenyl)naphthalen-2-yl)ethyl)ethanamine hydrochloride] was above 7.70. Next, `CC(N[C@H](C)c1cccc(Cl)c1)c1cc(-c2ccc(C3(F)COC3)cc2)c2ccccc2c1` (mixture of isomers) [Example 23, (1R)-1-(3-chlorophenyl)-N-(1-(4-(4-(3-fluorooxetan-3-yl)phenyl)naphthalen-2-yl)ethyl)ethanamine hydrochloride]: above 7.70; `COc1cccc([C@@H](C)NC(C)c2cc(-c3cccc(C(=O)O)c3C)c3ccccc3c2)c1` (stereo partly drawn) [Example 116, 3-(3-(1-(((R)-1-(3-Methoxyphenyl)ethyl)amino)ethyl)naphthalen-1-yl)-2-methylbenzoic acid hydrochloride]: 7.30 to 7.70. `C[C@@H](NCc1cc(-c2ccc(C(=O)O)cc2)c2ccccc2c1)c1cccc2ccccc12` [Example 106, (R)-4-(3-(((1-(Naphthalen-1-yl)ethyl)amino)methyl)naphthalen-1-yl)benzoic acid hydrochloride]: the pEC50 was 6.40 to 7.30.

Regarding `COc1cc(F)cc(C(C)NC(C)c2cc(-c3ccc(C(F)(F)F)cc3)c3ccccc3c2)c1` (single isomer, unassigned) [Example 163a, 1-(3-Fluoro-5-methoxyphenyl)-N-(1-(4-(4-(trifluoromethyl)phenyl)naphthalen-2-yl)ethyl)ethanamine hydrochloride], the negative logarithm of the EC50 (pEC50) is 6.40 to 7.30. The value for `COc1cccc([C@@H](C)NC(C)c2cc(-c3cccc(CCC(=O)O)c3F)c3ccccc3c2)c1` (stereo partly drawn) [Example 129, 3-(2-Fluoro-3-(3-(1-(((R)-1-(3-methoxyphenyl)ethyl)amino)ethyl)naphthalen-1-yl)phenyl)propanoic acid hydrochloride] was above 7.70; that for `CC(N[C@H](C)c1cccc2ccccc12)c1cc(-c2ccc(C(F)(F)F)cc2)c2ccccc2c1` (single isomer, unassigned) [Example 9b, hydrochloride] was above 7.70; that for `COc1cccc([C@@H](C)NC(C)c2cc(-c3ccc(OC(F)F)cc3)c3ccccc3c2)c1` (stereo partly drawn) [Example 21, 1-(4-(4-(Difluoromethoxy)phenyl)naphthalen-2-yl)-N-((R)-1-(3-methoxyphenyl)ethyl)ethanamine hydrochloride] was above 7.70.

Turning to `COc1cccc([C@@H](C)NC(C)c2cc(-c3ccc(F)c(CCC(=O)O)c3)c3ccccc3c2)c1` (stereo partly drawn) [Example 122, 3-(2-Fluoro-5-(3-(1-(((R)-1-(3-methoxyphenyl)ethyl)amino)ethyl)naphthalen-1-yl)phenyl)propanoic acid hydrochloride], the pEC50 is above 7.70.

For `COc1cccc([C@@H](C)NC(C)c2cc(-c3ccc(C(=O)O)c(Cl)c3)c3ccccc3c2)c1` (stereo partly drawn) [Example 121, 2-Chloro-4-(3-(1-(((R)-1-(3-methoxyphenyl)ethyl)amino)ethyl)naphthalen-1-yl)benzoic acid hydrochloride], the negative-log EC50 (pEC50) was 6.40 to 7.30. Next, `COc1cc([C@@H](C)NCc2cc(-c3ccc(F)c(C(=O)O)c3)c3ccccc3c2)ccc1F` [Example 96, (R)-2-Fluoro-5-(3-(((1-(4-fluoro-3-methoxyphenyl)ethyl)amino)methyl)naphthalen-1-yl)benzoic acid hydrochloride]: 6.40 to 7.30; `COc1cccc([C@@H](C)NC(C)c2cc(-c3ccc(S(C)(=O)=O)cc3)c3ccccc3c2)c1` (stereo partly drawn) [Example 17, (1R)-1-(3-Methoxyphenyl)-N-(1-(4-(4-(methylsulfonyl)phenyl)naphthalen-2-yl)ethyl)ethanamine hydrochloride]: 6.40 to 7.30.

Broadly, the pEC50 is the EC50 on a negative log10 scale, so that one unit is a factor of ten.

Values taken from patent US9493396B2, “Substituted naphthalene compounds as calcium sensing receptor modulators” (LUPIN ATLANTIS HOLDINGS SA, priority 2013, dated 2016).
